Data from PubChem BioAssay (NCI).
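1) Cells in 96-well plates. 2) Compound, 48 h, 5 concentrations. 3) Linear interpolation between surrounding doses. 4) Unreached endpoint = highest concentration. The concentration for full growth arrest is given as TGI.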

Experiments:
Assay in all cases: NCI-60 cell line screen, 48 h
MALME-3M melanoma = test system: MALME-3M melanoma
DMS 114 small cell lung = test system: DMS 114 small cell lung
IGROV1 ovarian = test system: IGROV1 ovarian
CAKI-1 renal = test system: CAKI-1 renal
OVCAR-8 ovarian = test system: OVCAR-8 ovarian
786-0 renal = test system: 786-0 renal
UACC-257 melanoma = test system: UACC-257 melanoma
K-562 leukemia = test system: K-562 leukemia
TK-10 renal = test system: TK-10 renal
HOP-92 NSCLC = test system: HOP-92 NSCLC
NCI-H460 lung = test system: NCI-H460 lung
A549 NSCLC = test system: A549 NSCLC
OVCAR-3 ovarian = test system: OVCAR-3 ovarian
UO-31 renal = test system: UO-31 renal
M19-MEL melanoma = test system: M19-MEL melanoma
NCI-H522 lung = test system: NCI-H522 lung
UACC-62 melanoma = test system: UACC-62 melanoma
SK-MEL-2 melanoma = test system: SK-MEL-2 melanoma
HOP-62 NSCLC = test system: HOP-62 NSCLC
OVCAR-4 ovarian = test system: OVCAR-4 ovarian
MOLT-4 leukemia = test system: MOLT-4 leukemia
SNB-19 CNS = test system: SNB-19 CNS
DLD-1 colon = test system: DLD-1 colon
SF-268 CNS = test system: SF-268 CNS
HL-60(TB) leukemia = test system: HL-60(TB) leukemia
OVCAR-5 ovarian = test system: OVCAR-5 ovarian
NCI-H226 lung = test system: NCI-H226 lung
NCI-H23 lung = test system: NCI-H23 lung
SF-539 CNS = test system: SF-539 CNS
HCT-116 colon = test system: HCT-116 colon
EKVX NSCLC = test system: EKVX NSCLC
SN12C renal = test system: SN12C renal
HCC-2998 colon = test system: HCC-2998 colon
KM12 colon = test system: KM12 colon
U251 CNS = test system: U251 CNS
CCRF-CEM leukemia = test system: CCRF-CEM leukemia
SF-295 CNS = test system: SF-295 CNS
RXF 393 renal = test system: RXF 393 renal
HT29 colon = test system: HT29 colon
RPMI-8226 leukemia = test system: RPMI-8226 leukemia
SNB-78 CNS = test system: SNB-78 CNS
SW-620 colon = test system: SW-620 colon
HOP-18 NSCLC = test system: HOP-18 NSCLC
LOX IMVI melanoma = test system: LOX IMVI melanoma
SK-MEL-28 melanoma = test system: SK-MEL-28 melanoma
LXFL 529 NSCLC = test system: LXFL 529 NSCLC
SK-MEL-5 melanoma = test system: SK-MEL-5 melanoma
SK-OV-3 ovarian = test system: SK-OV-3 ovarian
M14 melanoma = test system: M14 melanoma
HCT-15 colon = test system: HCT-15 colon
ACHN renal = test system: ACHN renal

Measured: TGI

CC1=C(C(=O)CC(=O)C(=O)Nc2cccc(C)c2C)Sc2ccccc2N1
> 100 µM: all assays above
